Measurements reported in article PMC4303209, “A novel phosphatidylinositol 3-kinase (PI3K) inhibitor directs a potent FOXO-dependent, p53-independent cell cycle arrest phenotype characterized by the differential induction of a subset of FOXO-regulated genes” (Breast Cancer Research : BCR, 2014).

Tested on: MCF-7 breast cancer cells
Assay: Microarray gene expression analysis (Agilent whole human genome 4 x 44K; compound vs DMSO, LIMMA log2 fold change)
Format: cell-based
Details: Apoptosis genes

Structure (SMILES): Cn1ncc2c(N3CCOCC3)nc(-c3cccc(O)c3)nc21 [ETP-45658]
- PML log2FC (Gene 5371): -0.804
- POLR2G log2FC (Gene 5436): 0.335
- POU3F3 log2FC (Gene 5455): -0.318
- POU4F1 log2FC (Gene 5457): -0.504
- POU4F3 log2FC (Gene 5459): -0.263
- PPARD log2FC (Gene 5467): -0.520
- PPARG log2FC (Gene 5468): -0.185
- PPID log2FC (Gene 5481): 0.248
- PPP1CA log2FC (Gene 5499): -0.227
- PPP2CA log2FC (Gene 5515): -0.322
- PPP2CB log2FC (Gene 5516): -0.242
- PPP2R1B log2FC (Gene 5519): -0.532
- PPP2R2B log2FC (Gene 5521): 0.082
- PPP2R4 log2FC (Gene 5524): -0.446
- PPP2R5C log2FC (Gene 5527): 0.888
- PPP3CC log2FC (Gene 5533): 0.163
- PPP3R1 log2FC (Gene 5534): -0.308
- PPT1 log2FC (Gene 5538): 0.432
- PRF1 log2FC (Gene 5551): -0.050
- PRKAA1 log2FC (Gene 5562): 0.429
- PRKAA2 log2FC (Gene 5563): 0.082
- PRKCA log2FC (Gene 5578): -0.217
- PRKCD log2FC (Gene 5580): -0.079
- PRKCE log2FC (Gene 5581): -0.042
- PRKCG log2FC (Gene 5582): -0.093
- PRKCH log2FC (Gene 5583): -0.256
- PRKCI log2FC (Gene 5584): 0.583
- PKN2 log2FC (Gene 5586): 0.510
- PRKD1 log2FC (Gene 5587): 0.494
- PRKCQ log2FC (Gene 5588): 0.132
- PRKCZ log2FC (Gene 5590): 0.430
- PRKDC log2FC (Gene 5591): 0.131
- MAPK3 log2FC (Gene 5595): -0.190
- MAPK7 log2FC (Gene 5598): -0.336
- MAP2K6 log2FC (Gene 5608): 0.116
- PRODH log2FC (Gene 5625): -0.290
- LGMN log2FC (Gene 5641): -0.066
- PSEN1 log2FC (Gene 5663): 0.418
- PSEN2 log2FC (Gene 5664): -0.458
- PSMA2 log2FC (Gene 5683): 0.460
- PSMA3 log2FC (Gene 5684): 0.270
- PSMA4 log2FC (Gene 5685): 0.609
- PSMA6 log2FC (Gene 5687): 0.200
- PSMB1 log2FC (Gene 5689): 0.085
- PSMB2 log2FC (Gene 5690): -0.547
- PSMB4 log2FC (Gene 5692): 0.132
- PSMB5 log2FC (Gene 5693): -0.298
- PSMB6 log2FC (Gene 5694): -0.120
- PSMB9 log2FC (Gene 5698): -0.203
- PSMB10 log2FC (Gene 5699): -0.184
- PSMC1 log2FC (Gene 5700): 0.172
- PSMC2 log2FC (Gene 5701): 0.576
- PSMC3 log2FC (Gene 5702): -0.176
- PSMC5 log2FC (Gene 5705): -0.327
- PSMC6 log2FC (Gene 5706): 0.776
- PSMD1 log2FC (Gene 5707): 0.397
- PSMD3 log2FC (Gene 5709): -0.109
- PSMD4 log2FC (Gene 5710): -0.086
- PSMD5 log2FC (Gene 5711): 0.388
- PSMD7 log2FC (Gene 5713): 0.182
- PSMD8 log2FC (Gene 5714): -0.132
- PSMD9 log2FC (Gene 5715): -0.171
- PSMD10 log2FC (Gene 5716): -0.293
- PSMD11 log2FC (Gene 5717): -0.214
- PSMD12 log2FC (Gene 5718): -0.582
- PSME1 log2FC (Gene 5720): 0.322
- PTEN log2FC (Gene 5728): 1.014
- PTGFR log2FC (Gene 5737): -0.039
- PTGIS log2FC (Gene 5740): 0.033
- PTH log2FC (Gene 5741): -0.079
- PTGS2 log2FC (Gene 5743): -0.151
- PTK2 log2FC (Gene 5747): 0.157
- PTPN6 log2FC (Gene 5777): 0.120
- PTPRC log2FC (Gene 5788): -0.053
- PTPRH log2FC (Gene 5794): 0.279
- RAC1 log2FC (Gene 5879): -0.258
- RAD9A log2FC (Gene 5883): 0.686
- RAD21 log2FC (Gene 5885): 1.043
- RAG1 log2FC (Gene 5896): 0.657
- RALB log2FC (Gene 5899): 0.324
- RARA log2FC (Gene 5914): -0.580
- RARG log2FC (Gene 5916): -0.272
- RASA1 log2FC (Gene 5921): 0.488
- RASGRF2 log2FC (Gene 5924): -0.240
- RB1 log2FC (Gene 5925): 0.746
- RELA log2FC (Gene 5970): -0.454
- DPF2 log2FC (Gene 5977): 0.303
- REST log2FC (Gene 5978): 0.367
- ROBO1 log2FC (Gene 6091): 0.128
- ROBO2 log2FC (Gene 6092): -0.056
- ROCK1 log2FC (Gene 6093): 0.615
- RPS3A log2FC (Gene 6189): 0.669
- RPS6 log2FC (Gene 6194): 0.357
- RPS6KA1 log2FC (Gene 6195): -0.234
- RPS6KA3 log2FC (Gene 6197): 0.412
- RPS6KB1 log2FC (Gene 6198): 0.426
- RPS27A log2FC (Gene 6233): 0.401
- RTKN log2FC (Gene 6242): -0.208
- SORT1 log2FC (Gene 6272): 0.261
- S100A8 log2FC (Gene 6279): 0.469
- S100B log2FC (Gene 6285): -0.122
- SATB1 log2FC (Gene 6304): 0.589
- SCT log2FC (Gene 6343): -0.095
- CCL2 log2FC (Gene 6347): -0.179
- CCL3 log2FC (Gene 6348): -0.223
- CCL5 log2FC (Gene 6352): 0.088
- CCL21 log2FC (Gene 6366): -0.170
- CX3CL1 log2FC (Gene 6376): -0.563
- CXCL12 log2FC (Gene 6387): -0.211
- MAP2K4 log2FC (Gene 6416): 0.120
- SET log2FC (Gene 6418): 0.225
- SFRP1 log2FC (Gene 6422): 0.214
- SFRP2 log2FC (Gene 6423): -0.093
- SFRP4 log2FC (Gene 6424): 0.051
- SFRP5 log2FC (Gene 6425): -0.042
- ITSN1 log2FC (Gene 6453): 0.278
- SHB log2FC (Gene 6461): -0.876
- SHH log2FC (Gene 6469): -0.209
- SIAH1 log2FC (Gene 6477): 0.248
- SIAH2 log2FC (Gene 6478): -0.579
- STIL log2FC (Gene 6491): 0.485
- SIX1 log2FC (Gene 6495): -0.507
- SKI log2FC (Gene 6497): -0.663
- SLC9A1 log2FC (Gene 6548): -0.600
- SLIT3 log2FC (Gene 6586): -0.286
- SNAI2 log2FC (Gene 6591): 0.199
- SMO log2FC (Gene 6608): -0.194
- SMPD1 log2FC (Gene 6609): 0.257
- SMPD2 log2FC (Gene 6610): -0.399
- SIGLEC1 log2FC (Gene 6614): -0.350
- SNAI1 log2FC (Gene 6615): -0.710
- SNCB log2FC (Gene 6620): -0.626
- SNCA log2FC (Gene 6622): -0.041
- SOD2 log2FC (Gene 6648): 0.179
- SON log2FC (Gene 6651): -0.111
- SOX2 log2FC (Gene 6657): 0.298
- SOX4 log2FC (Gene 6659): 0.216
- SOX9 log2FC (Gene 6662): -2.381
- SOX10 log2FC (Gene 6663): -0.095
- SP100 log2FC (Gene 6672): 0.968
- SPI1 log2FC (Gene 6688): -0.242
- SPN log2FC (Gene 6693): -0.216
- SRC log2FC (Gene 6714): -0.316
- SRPK2 log2FC (Gene 6733): 0.850
- SST log2FC (Gene 6750): 0.289
- SSTR3 log2FC (Gene 6753): -0.375
- STAR log2FC (Gene 6770): -0.189
- STAT1 log2FC (Gene 6772): 0.445
- STAT5A log2FC (Gene 6776): 0.569
- STAT5B log2FC (Gene 6777): 0.093
- STK4 log2FC (Gene 6789): 0.158
- STK11 log2FC (Gene 6794): -0.165
- STXBP1 log2FC (Gene 6812): -0.504
- SUPV3L1 log2FC (Gene 6832): 0.440
- ADAM17 log2FC (Gene 6868): 0.578
- TAF9 log2FC (Gene 6880): 0.363
- MAP3K7 log2FC (Gene 6885): 0.181
